Patent US11331299B2, “Medicinal use of serrulatane diterpenes” (The University of Sydney, priority 2016, dated 2022)

What was measured:
[1] = system: Chemokine CXCR1/2 (IL-8, Non-Selective); test: Chemokine CXCR1/2 (IL-8, Non-Selective) radio ligand binding; design: species or system Human; details: 10 μM; assay year 2015
Description: The in vitro pharmacological studies were conducted by Eurofins PanLab (Taiwan) using the parameters shown in Table 13 with respect to appropriate literature references.

[2] = biological target: T1, PRMT7 (h) (Homo sapiens, UniProt Q9NVM4); test: Epigenetic enzyme assay, Methyltransferases (MTs); type: biochemical; details: read-out: % Inhibition of Control Values
T1 sequence (Q9NVM4 1-692): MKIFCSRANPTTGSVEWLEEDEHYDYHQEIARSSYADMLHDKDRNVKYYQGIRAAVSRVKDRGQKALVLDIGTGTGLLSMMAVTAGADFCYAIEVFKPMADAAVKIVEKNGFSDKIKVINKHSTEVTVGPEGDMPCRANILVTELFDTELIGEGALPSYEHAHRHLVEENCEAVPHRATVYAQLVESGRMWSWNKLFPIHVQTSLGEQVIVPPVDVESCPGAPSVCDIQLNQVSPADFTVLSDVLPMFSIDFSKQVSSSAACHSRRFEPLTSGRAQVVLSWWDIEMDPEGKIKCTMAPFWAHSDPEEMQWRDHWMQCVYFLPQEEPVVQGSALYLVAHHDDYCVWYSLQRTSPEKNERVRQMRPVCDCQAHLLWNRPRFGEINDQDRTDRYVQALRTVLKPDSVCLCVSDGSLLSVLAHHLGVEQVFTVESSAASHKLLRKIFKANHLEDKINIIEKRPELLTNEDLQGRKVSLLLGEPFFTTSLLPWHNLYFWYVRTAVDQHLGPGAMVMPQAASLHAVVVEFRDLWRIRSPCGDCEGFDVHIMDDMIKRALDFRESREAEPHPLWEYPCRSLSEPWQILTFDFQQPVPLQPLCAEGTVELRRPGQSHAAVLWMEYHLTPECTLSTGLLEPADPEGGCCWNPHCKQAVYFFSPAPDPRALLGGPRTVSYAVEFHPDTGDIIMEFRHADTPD

[3] = biological target: HDAC5 (h) (Homo sapiens, UniProt Q9UQL6); test: Epigenetic enzyme assay, Histone deacetylase (HDACs); type: biochemical; details: read-out: % Inhibition of Control Values
HDAC5 (h), sequence (Q9UQL6 whole entry): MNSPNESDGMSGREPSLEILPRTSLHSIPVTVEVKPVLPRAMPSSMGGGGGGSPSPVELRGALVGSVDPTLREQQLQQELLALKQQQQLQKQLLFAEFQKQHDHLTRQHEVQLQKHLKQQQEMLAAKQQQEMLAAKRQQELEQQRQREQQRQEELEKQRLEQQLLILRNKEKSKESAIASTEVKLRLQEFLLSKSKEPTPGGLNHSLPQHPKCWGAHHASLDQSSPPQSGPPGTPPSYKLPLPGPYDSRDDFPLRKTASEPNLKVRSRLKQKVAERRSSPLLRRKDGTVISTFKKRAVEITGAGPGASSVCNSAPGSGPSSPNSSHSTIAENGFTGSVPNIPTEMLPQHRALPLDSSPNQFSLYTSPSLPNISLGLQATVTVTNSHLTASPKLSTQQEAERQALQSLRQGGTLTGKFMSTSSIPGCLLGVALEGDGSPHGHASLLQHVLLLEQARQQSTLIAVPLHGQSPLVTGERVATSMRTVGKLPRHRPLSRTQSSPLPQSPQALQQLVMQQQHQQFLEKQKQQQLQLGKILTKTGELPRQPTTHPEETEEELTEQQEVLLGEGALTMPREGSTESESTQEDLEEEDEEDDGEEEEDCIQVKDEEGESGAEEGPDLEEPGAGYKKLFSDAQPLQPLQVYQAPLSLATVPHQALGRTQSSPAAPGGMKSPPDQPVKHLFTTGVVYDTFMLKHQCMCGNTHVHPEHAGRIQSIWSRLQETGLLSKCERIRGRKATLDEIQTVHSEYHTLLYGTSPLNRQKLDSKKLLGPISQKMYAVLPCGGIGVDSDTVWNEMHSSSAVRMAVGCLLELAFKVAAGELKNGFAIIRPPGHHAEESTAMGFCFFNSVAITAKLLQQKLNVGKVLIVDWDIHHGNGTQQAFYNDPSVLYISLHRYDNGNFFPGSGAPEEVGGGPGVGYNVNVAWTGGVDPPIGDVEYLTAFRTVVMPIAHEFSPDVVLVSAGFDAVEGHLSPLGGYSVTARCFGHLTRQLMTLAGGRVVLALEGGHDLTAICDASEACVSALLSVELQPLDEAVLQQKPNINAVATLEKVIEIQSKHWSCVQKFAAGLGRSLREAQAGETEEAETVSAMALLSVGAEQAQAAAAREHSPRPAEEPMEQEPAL

[4] = biological target: Guanidinoacetate N-methyltransferase (h) (Homo sapiens, UniProt Q14353); test: Epigenetic enzyme assay, Small molecule methyltransferases; type: biochemical; details: read-out: % Inhibition of Control Values
[5] = biological target: T2, Haspin (h) (substrate histone H3 full length) (Homo sapiens, UniProt Q8TF76); test: Epigenetic enzyme assay, Kinases; type: biochemical; details: read-out: % Inhibition of Control Values
T2 sequence (Q8TF76 1-798): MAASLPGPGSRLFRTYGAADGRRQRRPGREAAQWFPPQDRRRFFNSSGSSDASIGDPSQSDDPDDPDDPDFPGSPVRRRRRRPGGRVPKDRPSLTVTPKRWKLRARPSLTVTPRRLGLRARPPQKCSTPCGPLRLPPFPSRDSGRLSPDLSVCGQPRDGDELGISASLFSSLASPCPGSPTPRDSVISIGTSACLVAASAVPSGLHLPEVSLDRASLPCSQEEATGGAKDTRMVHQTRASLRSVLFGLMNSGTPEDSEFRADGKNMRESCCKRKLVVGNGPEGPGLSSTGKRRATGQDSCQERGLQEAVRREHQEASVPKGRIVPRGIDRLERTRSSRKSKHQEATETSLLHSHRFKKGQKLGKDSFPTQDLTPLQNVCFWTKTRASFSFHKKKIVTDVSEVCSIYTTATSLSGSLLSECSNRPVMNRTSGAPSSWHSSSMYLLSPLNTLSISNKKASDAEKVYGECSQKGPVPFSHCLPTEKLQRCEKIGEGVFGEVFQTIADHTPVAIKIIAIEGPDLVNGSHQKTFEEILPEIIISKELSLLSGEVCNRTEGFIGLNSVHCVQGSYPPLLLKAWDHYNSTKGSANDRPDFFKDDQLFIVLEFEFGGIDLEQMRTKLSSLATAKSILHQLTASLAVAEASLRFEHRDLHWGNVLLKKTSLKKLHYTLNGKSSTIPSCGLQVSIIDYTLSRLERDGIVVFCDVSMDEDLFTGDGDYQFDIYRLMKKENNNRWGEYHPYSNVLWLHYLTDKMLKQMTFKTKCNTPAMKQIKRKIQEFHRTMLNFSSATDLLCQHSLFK

[6] = system: H3K9 me2; test: Cell-based detection methyl modifications; details: read-out: % Inhibition of Control Values
[7] = biological target: PRMT5 complex (h) (Homo sapiens, UniProt O14744); test: Epigenetic enzyme assay, Methyltransferases (MTs); type: biochemical; details: read-out: % Inhibition of Control Values
PRMT5 complex (h), sequence (O14744 whole entry): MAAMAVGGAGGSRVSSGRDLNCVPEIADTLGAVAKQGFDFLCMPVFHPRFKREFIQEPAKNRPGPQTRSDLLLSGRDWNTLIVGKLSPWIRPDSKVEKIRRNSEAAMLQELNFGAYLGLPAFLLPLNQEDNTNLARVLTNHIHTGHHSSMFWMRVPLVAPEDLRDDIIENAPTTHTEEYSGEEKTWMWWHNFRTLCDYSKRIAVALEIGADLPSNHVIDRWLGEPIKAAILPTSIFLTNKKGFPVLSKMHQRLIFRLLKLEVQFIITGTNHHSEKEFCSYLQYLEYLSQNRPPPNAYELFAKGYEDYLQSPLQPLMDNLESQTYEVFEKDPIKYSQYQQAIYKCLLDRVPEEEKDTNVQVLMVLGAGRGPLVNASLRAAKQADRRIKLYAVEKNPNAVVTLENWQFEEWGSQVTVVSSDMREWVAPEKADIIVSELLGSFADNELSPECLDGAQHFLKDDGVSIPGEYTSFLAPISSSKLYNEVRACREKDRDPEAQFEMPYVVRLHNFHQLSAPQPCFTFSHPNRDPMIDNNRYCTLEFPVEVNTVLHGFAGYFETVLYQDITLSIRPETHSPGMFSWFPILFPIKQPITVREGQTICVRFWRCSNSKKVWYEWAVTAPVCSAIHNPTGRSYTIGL
PRMT5 complex (h), sequence (Q9BQA1 whole entry partner): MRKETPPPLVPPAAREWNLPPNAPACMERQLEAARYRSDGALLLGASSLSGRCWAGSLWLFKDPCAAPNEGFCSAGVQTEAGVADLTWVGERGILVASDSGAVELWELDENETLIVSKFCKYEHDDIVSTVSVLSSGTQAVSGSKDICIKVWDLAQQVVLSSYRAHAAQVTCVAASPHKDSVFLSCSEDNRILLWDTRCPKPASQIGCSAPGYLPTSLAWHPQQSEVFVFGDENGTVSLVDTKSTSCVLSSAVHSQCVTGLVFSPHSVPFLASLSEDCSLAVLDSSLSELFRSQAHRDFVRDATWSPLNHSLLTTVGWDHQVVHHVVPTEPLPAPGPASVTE

Structure (SMILES) | % Control Response [1] | inhibition at 10 µM [2] | inhibition at 10 µM [3] | inhibition at 10 µM [4] | inhibition at 10 µM [5] | inhibition at 10 µM [6] | inhibition at 10 µM [7]
CC(C)=CCC[C@H](CO)[C@@H]1CC[C@@H](C)c2c1cc(C)c(O)c2O [Compound 1, 7,8,18-trihydroxyserrulat-14-ene] | 30% | -2% | -3% | 8% | 2% | 1% | 8%
CC(C)=CCC[C@@H]1C(O)Oc2c(C)cc(O)c3c2[C@H]1CC[C@H]3C (stereo partly drawn) [Compound 2, 5,18-epoxyserrulat-14-en-8,18-diol] | −28% | 0% | -2% | -1% | 11% | 11% | -8%
CC(C)=CCC[C@@H]1COc2c(C)cc(O)c3c2[C@H]1CC[C@H]3C [Compound 3, 5,18-epoxy-8-hydroxyserrulat-14-ene] | −1% | -36% | -1% | -1% | 7% | 20% | 9%
